Measurements from the supplement of paper PMC10307832.

Assays:
Assay in all cases: relative viability (nuclei count vs DMSO), 5 days (fraction); higher = more cells survive
NCI-H322M = system: NCI-H322M
In short: (§1)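 Cells from lung cancer lines were seeded into 1536-well plates and, one day later, dosed by pin tool. Treatments were either a single drug or a fixed dose of an anchor drug with five library-drug doses (not always all listed) in √10 steps. After 5 days, nuclei were stained in a one-step fixation (final 0.05% Triton X-100, 1% formaldehyde, 1 ug/ml Hoechst) and counted on 4× images, and relative viability is the treated-to-vehicle nuclei ratio, as the median of duplicate plates.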

SW 1573 = system: SW 1573
In short: as §1

NCI-H1355 = system: NCI-H1355
In short: as §1

PC-14 = system: PC-14
In short: as §1

HCC-15 = system: HCC-15
In short: as §1

NCI-H2342 = system: NCI-H2342
In short: as §1

NCI-H2405 = system: NCI-H2405
In short: as §1

COR-L23 = system: COR-L23
In short: as §1

PC-3 [JPC-3] = system: PC-3 [JPC-3]
In short: as §1

ABC-1 = system: ABC-1
In short: as §1

EKVX = system: EKVX
In short: as §1

NCI-H661 = system: NCI-H661
In short: as §1

NCI-H2228 = system: NCI-H2228
In short: as §1

NCI-H1563 = system: NCI-H1563
In short: as §1

NCI-H1650 = system: NCI-H1650
In short: as §1

H3255 = system: H3255
In short: as §1

NCI-H1437 = system: NCI-H1437
In short: as §1

RERF-LC-KJ = system: RERF-LC-KJ
In short: as §1

LK-2 = system: LK-2
In short: as §1

HCC-827 = system: HCC-827
In short: as §1

CAL-12T = system: CAL-12T
In short: as §1

NCI-H520 = system: NCI-H520
In short: as §1

NCI-H1734 = system: NCI-H1734
In short: as §1

## C=C1C(=O)O[C@@H](CCCCCCCC)[C@@H]1C(=O)O [C-75] + CCNC(=O)c1noc(-c2cc(C(C)C)c(O)cc2O)c1-c1ccc(CN2CCOCC2)cc1 [Luminespib] (partner 0.01 µM)
NCI-H322M; first compound 0.08 µM
  relative viability: 0.928
NCI-H322M; first compound 0.253 µM
  relative viability: 1.24
NCI-H322M; first compound 0.8 µM
  relative viability: 0.816
NCI-H322M; first compound 2.53 µM
  relative viability: 0.879
NCI-H322M; first compound 8 µM
  relative viability: 0.829
SW 1573; first compound 0.08 µM
  relative viability: 0.168
SW 1573; first compound 0.253 µM
  relative viability: 0.254
SW 1573; first compound 0.8 µM
  relative viability: 0.207
SW 1573; first compound 2.53 µM
  relative viability: 0.216
SW 1573; first compound 8 µM
  relative viability: 0.157
NCI-H1355; first compound 0.08 µM
  relative viability: 0.621
NCI-H1355; first compound 0.253 µM
  relative viability: 0.668
NCI-H1355; first compound 0.8 µM
  relative viability: 0.641
NCI-H1355; first compound 2.53 µM
  relative viability: 0.394
NCI-H1355; first compound 8 µM
  relative viability: 0.615
PC-14; first compound 0.08 µM
  relative viability: 0.158
PC-14; first compound 0.253 µM
  relative viability: 0.171
PC-14; first compound 0.8 µM
  relative viability: 0.151
PC-14; first compound 2.53 µM
  relative viability: 0.142
PC-14; first compound 8 µM
  relative viability: 0.152
HCC-15; first compound 0.08 µM
  relative viability: 0.303
HCC-15; first compound 0.253 µM
  relative viability: 0.271
HCC-15; first compound 0.8 µM
  relative viability: 0.148
HCC-15; first compound 2.53 µM
  relative viability: 0.345
HCC-15; first compound 8 µM
  relative viability: 0.196
NCI-H2342; first compound 0.08 µM
  relative viability: 0.798
NCI-H2342; first compound 0.253 µM
  relative viability: 0.802
NCI-H2342; first compound 0.8 µM
  relative viability: 0.689
NCI-H2342; first compound 2.53 µM
  relative viability: 0.743
NCI-H2342; first compound 8 µM
  relative viability: 0.68
NCI-H2405; first compound 0.08 µM
  relative viability: 0.822
NCI-H2405; first compound 0.253 µM
  relative viability: 0.478
NCI-H2405; first compound 0.8 µM
  relative viability: 0.716
NCI-H2405; first compound 2.53 µM
  relative viability: 0.558
NCI-H2405; first compound 8 µM
  relative viability: 0.869
COR-L23; first compound 0.08 µM
  relative viability: 0.63
COR-L23; first compound 0.253 µM
  relative viability: 0.706
COR-L23; first compound 0.8 µM
  relative viability: 0.682
COR-L23; first compound 2.53 µM
  relative viability: 0.66
COR-L23; first compound 8 µM
  relative viability: 0.559
PC-3 [JPC-3]; first compound 0.08 µM
  relative viability: 0.678
PC-3 [JPC-3]; first compound 0.253 µM
  relative viability: 0.667
PC-3 [JPC-3]; first compound 0.8 µM
  relative viability: 0.739
PC-3 [JPC-3]; first compound 2.53 µM
  relative viability: 0.533
PC-3 [JPC-3]; first compound 8 µM
  relative viability: 0.895
ABC-1; first compound 0.253 µM
  relative viability: 0.389
ABC-1; first compound 0.8 µM
  relative viability: 0.51
ABC-1; first compound 2.53 µM
  relative viability: 0.364
ABC-1; first compound 8 µM
  relative viability: 0.378
EKVX; first compound 0.08 µM
  relative viability: 0.867
EKVX; first compound 0.253 µM
  relative viability: 0.984
EKVX; first compound 0.8 µM
  relative viability: 0.788
EKVX; first compound 8 µM
  relative viability: 0.891
NCI-H661; first compound 0.08 µM
  relative viability: 0.946
NCI-H661; first compound 0.253 µM
  relative viability: 0.905
NCI-H661; first compound 0.8 µM
  relative viability: 0.899
NCI-H661; first compound 2.53 µM
  relative viability: 0.869
NCI-H661; first compound 8 µM
  relative viability: 0.84
NCI-H2228; first compound 0.08 µM
  relative viability: 0.135
NCI-H2228; first compound 0.253 µM
  relative viability: 0.161
NCI-H2228; first compound 0.8 µM
  relative viability: 0.116
NCI-H2228; first compound 2.53 µM
  relative viability: 0.181
NCI-H2228; first compound 8 µM
  relative viability: 0.283
NCI-H1563; first compound 0.08 µM
  relative viability: 0.498
NCI-H1563; first compound 0.253 µM
  relative viability: 0.535
NCI-H1563; first compound 0.8 µM
  relative viability: 0.531
NCI-H1563; first compound 2.53 µM
  relative viability: 0.483
NCI-H1563; first compound 8 µM
  relative viability: 0.557
NCI-H1650; first compound 0.08 µM
  relative viability: 0.215
NCI-H1650; first compound 0.253 µM
  relative viability: 0.194
NCI-H1650; first compound 2.53 µM
  relative viability: 0.141
NCI-H1650; first compound 8 µM
  relative viability: 0.211
H3255; first compound 0.08 µM
  relative viability: 0.935
H3255; first compound 0.253 µM
  relative viability: 1.02
H3255; first compound 0.8 µM
  relative viability: 0.794
H3255; first compound 2.53 µM
  relative viability: 0.723
H3255; first compound 8 µM
  relative viability: 0.977
NCI-H1437; first compound 0.08 µM
  relative viability: 1.15
NCI-H1437; first compound 0.253 µM
  relative viability: 1.27
NCI-H1437; first compound 0.8 µM
  relative viability: 1.11
NCI-H1437; first compound 2.53 µM
  relative viability: 1.13
NCI-H1437; first compound 8 µM
  relative viability: 1.12
RERF-LC-KJ; first compound 0.08 µM
  relative viability: 1.31
RERF-LC-KJ; first compound 0.253 µM
  relative viability: 1.22
RERF-LC-KJ; first compound 0.8 µM
  relative viability: 1.23
RERF-LC-KJ; first compound 2.53 µM
  relative viability: 1.08
RERF-LC-KJ; first compound 8 µM
  relative viability: 1.11
LK-2; first compound 0.08 µM
  relative viability: 0.193
LK-2; first compound 0.253 µM
  relative viability: 0.195
LK-2; first compound 0.8 µM
  relative viability: 0.191
LK-2; first compound 2.53 µM
  relative viability: 0.185
LK-2; first compound 8 µM
  relative viability: 0.202
HCC-827; first compound 0.08 µM
  relative viability: 0.519
HCC-827; first compound 0.253 µM
  relative viability: 0.703
HCC-827; first compound 0.8 µM
  relative viability: 0.825
HCC-827; first compound 2.53 µM
  relative viability: 0.42
HCC-827; first compound 8 µM
  relative viability: 0.566
CAL-12T; first compound 0.08 µM
  relative viability: 0.898
CAL-12T; first compound 0.253 µM
  relative viability: 0.365
CAL-12T; first compound 0.8 µM
  relative viability: 0.178
CAL-12T; first compound 2.53 µM
  relative viability: 0.405
CAL-12T; first compound 8 µM
  relative viability: 0.376
NCI-H520; first compound 0.08 µM
  relative viability: 0.233
NCI-H520; first compound 0.253 µM
  relative viability: 0.214
NCI-H520; first compound 0.8 µM
  relative viability: 0.217
NCI-H520; first compound 2.53 µM
  relative viability: 0.208
NCI-H520; first compound 8 µM
  relative viability: 0.331
NCI-H1734; first compound 0.08 µM
  relative viability: 0.201
NCI-H1734; first compound 0.253 µM
  relative viability: 0.192
NCI-H1734; first compound 0.8 µM
  relative viability: 0.178
NCI-H1734; first compound 2.53 µM
  relative viability: 0.184
NCI-H1734; first compound 8 µM
  relative viability: 0.185
